According to ChEMBL document CHEMBL1201862, “PubChem BioAssay data set” (2004):
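Protocol summary: plate cells (96-well), add compound at 5 concentrations, incubate 48 h, interpolate endpoints linearly. GI50 marks 50% less growth.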 Calls of active or inactive are those of the source. No stated cut-off is given here; in the data, active = GI50 up to about 1.1 µM and inactive = higher.

What was measured:
Test in all cases: NCI tumour cell line growth inhibition, 48 h
A549 = tested on: A549
HL-60 = tested on: HL-60
HOP-62 = tested on: HOP-62
HOP-92 = tested on: HOP-92
HT-29 = tested on: HT-29
KM12 = tested on: KM12
MOLT-4 = tested on: MOLT-4
NCI-H23 = tested on: NCI-H23
OVCAR-3 = tested on: OVCAR-3
OVCAR-4 = tested on: OVCAR-4
OVCAR-5 = tested on: OVCAR-5
OVCAR-8 = tested on: OVCAR-8
SF-295 = tested on: SF-295
SF-539 = tested on: SF-539
SK-MEL-28 = tested on: SK-MEL-28
SNB-19 = tested on: SNB-19
SNB-75 = tested on: SNB-75
U-251 = tested on: U-251
UACC-257 = tested on: UACC-257
UO-31 = tested on: UO-31

SMILES	GI50 (A549)	GI50 (HL-60)	GI50 (HOP-62)	GI50 (HOP-92)	GI50 (HT-29)	GI50 (KM12)	GI50 (MOLT-4)	GI50 (NCI-H23)	GI50 (OVCAR-3)	GI50 (OVCAR-4)	GI50 (OVCAR-5)	GI50 (OVCAR-8)	GI50 (SF-295)	GI50 (SF-539)	GI50 (SK-MEL-28)	GI50 (SNB-19)	GI50 (SNB-75)	GI50 (U-251)	GI50 (UACC-257)	GI50 (UO-31)
CCOC(=O)c1csc(NC(=O)CN2CCCC2)n1	> 100 µM (inactive)	> 100 µM (inactive)	> 100 µM (inactive)	> 100 µM (inactive)	> 100 µM (inactive)	> 100 µM (inactive)	> 100 µM (inactive)	> 100 µM (inactive)	> 100 µM (inactive)	> 100 µM (inactive)	> 100 µM (inactive)	> 100 µM (inactive)	> 100 µM (inactive)	> 100 µM (inactive)	> 100 µM (inactive)	> 100 µM (inactive)	> 100 µM (inactive)	> 100 µM (inactive)	> 100 µM (inactive)	> 100 µM (inactive)
CCOC(=O)c1csc(NC(=O)CCN2CCN(C)CC2)n1	> 100 µM (inactive)	75.5 µM (inactive)	> 100 µM (inactive)	> 100 µM (inactive)	62.1 µM (inactive)	> 100 µM (inactive)	65.5 µM (inactive)	> 100 µM (inactive)	> 100 µM (inactive)	> 100 µM (inactive)	> 100 µM (inactive)	> 100 µM (inactive)	> 100 µM (inactive)	> 100 µM (inactive)	> 100 µM (inactive)	> 100 µM (inactive)	> 100 µM (inactive)	> 100 µM (inactive)	> 100 µM (inactive)	> 100 µM (inactive)
Cc1nc2ccccc2c(=O)n1CC(=O)O	> 100 µM (inactive)	> 100 µM (inactive)	> 100 µM (inactive)	> 100 µM (inactive)	> 100 µM (inactive)	> 100 µM (inactive)	> 100 µM (inactive)	> 100 µM (inactive)	> 100 µM (inactive)	> 100 µM (inactive)	> 100 µM (inactive)	> 100 µM (inactive)	> 100 µM (inactive)	> 100 µM (inactive)	> 100 µM (inactive)	> 100 µM (inactive)	> 100 µM (inactive)	> 100 µM (inactive)	> 100 µM (inactive)	> 100 µM (inactive)
N#C[C@H](c1ccccn1)c1nc2ccccc2nc1Cl	> 100 µM (inactive)	74.6 µM (inactive)	> 100 µM (inactive)	> 100 µM (inactive)	> 100 µM (inactive)	36.5 µM (inactive)	> 100 µM (inactive)	> 100 µM (inactive)	> 100 µM (inactive)	> 100 µM (inactive)	> 100 µM (inactive)	> 100 µM (inactive)	> 100 µM (inactive)	> 100 µM (inactive)	> 100 µM (inactive)	> 100 µM (inactive)	> 100 µM (inactive)	> 100 µM (inactive)	> 100 µM (inactive)	> 100 µM (inactive)
O=C1C2c3[nH]c4ccccc4c3C3CCSCC3C2C(=O)N1c1ccccc1 (stereo not given)	> 100 µM (inactive)	> 100 µM (inactive)	> 100 µM (inactive)	> 100 µM (inactive)	> 100 µM (inactive)	> 100 µM (inactive)	87.3 µM (inactive)	> 100 µM (inactive)	> 100 µM (inactive)	> 100 µM (inactive)	> 100 µM (inactive)	> 100 µM (inactive)	> 100 µM (inactive)	59.2 µM (inactive)	> 100 µM (inactive)	> 100 µM (inactive)	15.9 µM (inactive)	> 100 µM (inactive)	> 100 µM (inactive)	> 100 µM (inactive)
C[N+]1(C)CN(c2ccccc2)C2(CCN(CCCC(=O)c3cccs3)CC2)C1=O	> 100 µM (inactive)	> 100 µM (inactive)	33.4 µM (inactive)	35.7 µM (inactive)	31.8 µM (inactive)	> 100 µM (inactive)	71.6 µM (inactive)	82.6 µM (inactive)	94.2 µM (inactive)	96.8 µM (inactive)	85.1 µM (inactive)	> 100 µM (inactive)	> 100 µM (inactive)	> 100 µM (inactive)	> 100 µM (inactive)	> 100 µM (inactive)	27.7 µM (inactive)	> 100 µM (inactive)	42.4 µM (inactive)	62.4 µM (inactive)
Cc1cc2nc3c(C(O)CO)nn(-c4ccccc4)c3nc2cc1C (stereo not given)	12.9 µM (inactive)	21.6 µM (inactive)	19.4 µM (inactive)	15.5 µM (inactive)	15 µM (inactive)	16.2 µM (inactive)	4.3 µM (inactive)	23 µM (inactive)	15.8 µM (inactive)	20.2 µM (inactive)	22.3 µM (inactive)	23.2 µM (inactive)	15.7 µM (inactive)	20.7 µM (inactive)	20.7 µM (inactive)	22.9 µM (inactive)	22.4 µM (inactive)	15.2 µM (inactive)	22 µM (inactive)	15.1 µM (inactive)
CC(C)N(C)C(=O)C12C3C4C1C1C2C3C41C#N (stereo not given)	> 100 µM (inactive)	> 100 µM (inactive)	> 100 µM (inactive)	> 100 µM (inactive)	> 100 µM (inactive)	> 100 µM (inactive)	> 100 µM (inactive)	> 100 µM (inactive)	> 100 µM (inactive)	> 100 µM (inactive)	> 100 µM (inactive)	> 100 µM (inactive)	> 100 µM (inactive)	> 100 µM (inactive)	> 100 µM (inactive)	> 100 µM (inactive)	7.64 µM (inactive)	> 100 µM (inactive)	> 100 µM (inactive)	> 100 µM (inactive)
C=C1CC(OC)(C(OC)C(=O)N[C@H]2OCO[C@H]3C2O[C@H](C[C@@H](COC)OC)C(C)(C)C3OC)O[C@H](C)[C@@H]1C (stereo not given in full)	0.693 µM (active)	0.412 µM (active)	1.04 µM (active)	0.521 µM (active)	0.491 µM (active)	0.603 µM (active)	0.522 µM (active)	1.18 µM (inactive)	0.755 µM (active)	0.733 µM (active)	1.42 µM (inactive)	0.861 µM (active)	0.851 µM (active)	0.76 µM (active)	0.764 µM (active)	0.611 µM (active)	1.21 µM (inactive)	0.918 µM (active)	1.1 µM (active)	0.759 µM (active)
CC(=O)O[C@H]1CC[C@@]2(C)[C@H](CC[C@@H]3[C@@H]2CC[C@]2(C)[C@@H](c4ccc(=O)oc4)C[C@H]4O[C@]342)C1	0.213 µM (active)	0.307 µM (active)	0.521 µM (active)	0.92 µM (active)	1.77 µM (inactive)	2.36 µM (inactive)	0.237 µM (active)	0.327 µM (active)	0.338 µM (active)	0.675 µM (active)	4.8 µM (inactive)	0.509 µM (active)	0.515 µM (active)	0.348 µM (active)	2.2 µM (inactive)	1.82 µM (inactive)	0.708 µM (active)	1.02 µM (active)	1.06 µM (active)	0.791 µM (active)
